Test results taken from patent US20240307372A1, “COMPOSITIONS AND METHODS TO IMPROVE BENEFIT OF SUBOPTIMALLY ADMINISTERED THERAPEUCTICS FOR THE TREATMENT OF BENIGN AND NEOPLASTIC DISEASES, INFECTIONS, INFLAMMATORY, METABOLIC AND IMMUNOLOGIAL DISEASES” (priority 2023, published 2024).
Values joined by “and” are separate entries in the source; they are usually repeats but may differ in a detail not shown here. Identical values can stand only once.

Legend:
Pgp = Pgp (Homo sapiens, UniProt P08183); conditions: cited from earlier work
Chain of Pgp (P08183 whole entry): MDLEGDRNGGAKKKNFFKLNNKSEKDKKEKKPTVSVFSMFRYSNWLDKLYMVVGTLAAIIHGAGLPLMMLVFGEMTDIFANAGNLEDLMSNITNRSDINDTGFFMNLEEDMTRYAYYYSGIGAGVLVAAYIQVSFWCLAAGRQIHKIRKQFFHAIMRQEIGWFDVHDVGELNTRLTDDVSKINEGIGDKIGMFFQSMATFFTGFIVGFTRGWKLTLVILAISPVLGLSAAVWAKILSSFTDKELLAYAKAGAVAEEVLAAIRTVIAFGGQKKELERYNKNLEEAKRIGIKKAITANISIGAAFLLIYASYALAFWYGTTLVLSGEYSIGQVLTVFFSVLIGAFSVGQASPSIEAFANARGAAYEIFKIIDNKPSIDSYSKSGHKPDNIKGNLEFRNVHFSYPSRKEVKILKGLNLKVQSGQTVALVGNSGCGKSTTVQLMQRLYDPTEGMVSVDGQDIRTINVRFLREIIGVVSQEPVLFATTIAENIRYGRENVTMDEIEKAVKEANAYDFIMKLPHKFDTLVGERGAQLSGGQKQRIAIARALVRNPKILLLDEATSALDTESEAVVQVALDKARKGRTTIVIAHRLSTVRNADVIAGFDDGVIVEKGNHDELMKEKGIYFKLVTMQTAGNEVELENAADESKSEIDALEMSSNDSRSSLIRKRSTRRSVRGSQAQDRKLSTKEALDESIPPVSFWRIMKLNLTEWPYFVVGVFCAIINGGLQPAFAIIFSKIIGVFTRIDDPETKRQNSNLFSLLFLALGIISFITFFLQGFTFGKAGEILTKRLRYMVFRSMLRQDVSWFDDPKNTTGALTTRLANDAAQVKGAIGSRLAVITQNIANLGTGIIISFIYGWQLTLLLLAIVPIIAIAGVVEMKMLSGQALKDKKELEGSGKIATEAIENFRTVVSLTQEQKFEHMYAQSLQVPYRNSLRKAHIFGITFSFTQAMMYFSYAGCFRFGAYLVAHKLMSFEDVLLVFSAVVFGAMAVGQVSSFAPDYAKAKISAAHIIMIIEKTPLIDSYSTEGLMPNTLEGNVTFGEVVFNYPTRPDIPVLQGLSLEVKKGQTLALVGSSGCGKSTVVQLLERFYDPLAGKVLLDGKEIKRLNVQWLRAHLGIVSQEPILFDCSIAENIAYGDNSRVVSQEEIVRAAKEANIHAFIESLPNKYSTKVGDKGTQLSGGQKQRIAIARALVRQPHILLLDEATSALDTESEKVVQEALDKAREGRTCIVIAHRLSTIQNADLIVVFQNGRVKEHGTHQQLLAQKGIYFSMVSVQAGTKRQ

CAMKII gamma = target: T1, CAMKII gamma (Homo sapiens, UniProt Q13555); assay: CAMKII gamma kinase activity, ADP Glo (Promega); assay type: biochemical; conditions: for CAMKII gamma kinase activity inhibition (in words): 10 or 50 uM ATP
T1 construct: purchased Promega V3531
T1 sequence (Q13555 whole entry): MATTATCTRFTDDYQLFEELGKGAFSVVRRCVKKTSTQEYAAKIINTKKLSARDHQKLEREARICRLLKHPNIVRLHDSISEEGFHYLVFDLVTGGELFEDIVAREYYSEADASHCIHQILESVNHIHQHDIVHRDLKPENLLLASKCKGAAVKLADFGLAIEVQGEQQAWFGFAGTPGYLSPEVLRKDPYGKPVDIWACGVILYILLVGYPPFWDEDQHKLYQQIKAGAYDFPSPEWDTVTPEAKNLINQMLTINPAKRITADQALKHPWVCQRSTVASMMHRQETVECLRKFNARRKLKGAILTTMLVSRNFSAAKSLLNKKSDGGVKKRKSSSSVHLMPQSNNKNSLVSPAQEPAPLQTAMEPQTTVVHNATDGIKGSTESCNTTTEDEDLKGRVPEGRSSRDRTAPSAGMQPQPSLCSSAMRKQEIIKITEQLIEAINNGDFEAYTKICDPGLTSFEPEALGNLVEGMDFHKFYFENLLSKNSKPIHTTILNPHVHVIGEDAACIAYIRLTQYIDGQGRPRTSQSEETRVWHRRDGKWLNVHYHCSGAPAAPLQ
Protocol: An enzymatic study was conducted to evaluate the inhibition of CAMKII gamma by ES-3000 (Tetrandrine). CAMKII gamma kinase activity was measured using […] purchased from Promega following the Promega protocol. CAMKII enzyme system purchased from Promega (V3531). ADP Glo was used for detection. Assay optimized for linearity of protein and time. Conditions for inhibitor screening 25 ng CAMKII, 20 min. incubations, inhibitor or DMSO (5%) at RT in 20 uL total volume. Inhibitor, ATP (10 or 50 uM), substrates and buffer added to tubes and reactions started with enzyme. […] Reactions terminated at 20 min. by adding ADP Glo reaction following manufactures instructions. All reactions were done in duplicate. Calculations of percent (%) inhibition determined by dividing the mean activity at each condition by the mean of the DMSO control times 100.

For “6,6′,7,12-tetramethoxy-2,2′-dimethyl-berbaman [ES-3000]”, which Pgp substrate (Pgp) is on record?
The Pgp substrate was “not a substrate of Pgp”.

What about the “function of Pgp” value (Pgp) of the same substance?
Its value is “directly inhibits the function of Pgp in a dose-dependent manner”.

What about the “% inhibition” value (CAMKII gamma; 30 uM, 10 uM ATP) of the same substance?
The value was 29.1% and 29%.

What about the “CamKIIγ activity, mean” value (CAMKII gamma; 30 uM, 10 uM ATP) of the same substance?
The value was 3.09 units.

What about the “CamKIIγ activity, units (duplicates)” value (CAMKII gamma; 30 uM, 10 uM ATP) of the same substance?
Its value is 2.75 units and 3.43 units.

And the “kinase activity, % of DMSO control” value (CAMKII gamma; 30 uM, 10 uM ATP)?
The value was 71%.

And the “% inhibition” value (CAMKII gamma; 30 uM, 50 uM ATP)?
The value was 15%.

And the “CamKIIγ activity, mean” value (CAMKII gamma; 30 uM, 50 uM ATP)?
The value was 10.55 units.

What about the “CamKIIγ activity, units (duplicates)” value (CAMKII gamma; 30 uM, 50 uM ATP) of the same substance?
Its value is 10.4 units and 10.7 units.

And the “kinase activity, % of DMSO control” value (CAMKII gamma; 30 uM, 50 uM ATP)?
The value was 85%.

What about the “% inhibition” value (CAMKII gamma; 100 uM, 10 uM ATP) of the same substance?
The value was 34.2% and 34%.

What about the “CamKIIγ activity, mean” value (CAMKII gamma; 100 uM, 10 uM ATP) of the same substance?
The value was 2.87 units.

What about the “CamKIIγ activity, units (duplicates)” value (CAMKII gamma; 100 uM, 10 uM ATP) of the same substance?
Its value is 2.5 units and 3.24 units.

What about the “kinase activity, % of DMSO control” value (CAMKII gamma; 100 uM, 10 uM ATP) of the same substance?
Its value is 66%.

And the “% inhibition” value (CAMKII gamma; 100 uM, 50 uM ATP)?
Its value is 36%.

And the “CamKIIγ activity, mean” value (CAMKII gamma; 100 uM, 50 uM ATP)?
The value was 7.955 units.

What about the “CamKIIγ activity, units (duplicates)” value (CAMKII gamma; 100 uM, 50 uM ATP) of the same substance?
The value was 8.81 units and 7.1 units.

And the “kinase activity, % of DMSO control” value (CAMKII gamma; 100 uM, 50 uM ATP)?
The value was 64%.

What about the “% inhibition” value (CAMKII gamma; 250 uM, 10 uM ATP) of the same substance?
The value was 90.6% and 91%.

And the “CamKIIγ activity, mean” value (CAMKII gamma; 250 uM, 10 uM ATP)?
The value was 0.41 units.

And the “CamKIIγ activity, units (duplicates)” value (CAMKII gamma; 250 uM, 10 uM ATP)?
Its value is 0.34 units and 0.48 units.

What about the “kinase activity, % of DMSO control” value (CAMKII gamma; 250 uM, 10 uM ATP) of the same substance?
The value was 9%.

And the “CAMKII gamma kinase activity inhibition (in words)” value (CAMKII gamma)?
Its value is “inhibited CAMKII gamma kinase activity in a dose dependent manner”.

And the “CAMKII gamma kinase activity inhibition (in words)” value (CAMKII gamma; listed as TET)?
Its value is “inhibited the activation of CaMKIIγ in a dose dependent manner”.
